Where “and” joins values, the source holds several entries; their conditions need not be identical. Identical values can stand only once. Inconclusive results and toxic doses are left out. Rule for the calls: active = survival T/C of 150% or more; inactive = T/C below 125% in these data.
Tested on: P388 leukemia ip, CD2F1 mice, survival T/C
Test: NCI In Vivo Anticancer Drug Screen. Data for tumor model P388 Leukemia (intraperitoneal) in CD2F1 (CDF1) mice
Conditions: endpoint: median survival time, higher = longer survival
In short: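 Mice carrying the transplanted tumor received test compound or vehicle. Survival was recorded in each group, and the value is the treated-group measurement divided by that of the vehicle-treated control group.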

[1] = dose: 50.0 mg/kg/injection, schedule: Q01DX005 (ip), vehicle: Klucel (hydroxypropylcellulose) (HPC)
[2] = dose: 100.0 mg/kg/injection, schedule: Q01DX005 (ip), vehicle: Klucel (hydroxypropylcellulose) (HPC)
[3] = dose: 200.0 mg/kg/injection, schedule: Q01DX005 (ip), vehicle: Klucel (hydroxypropylcellulose) (HPC)
[4] = dose: 12.5 mg/kg/injection, schedule: Q01DX009 (ip), vehicle: saline with Tween-80
[5] = dose: 25.0 mg/kg/injection, schedule: Q01DX009 (ip), vehicle: saline with Tween-80
[6] = dose: 12.5 mg/kg/injection, schedule: Q01DX005 (ip), vehicle: Klucel (hydroxypropylcellulose) (HPC)
[7] = dose: 25.0 mg/kg/injection, schedule: Q01DX005 (ip), vehicle: Klucel (hydroxypropylcellulose) (HPC)
[8] = dose: 50.0 mg/kg/injection, schedule: Q01DX009 (ip), vehicle: Klucel (hydroxypropylcellulose) (HPC)
[9] = dose: 50.0 mg/kg/injection, schedule: Q01DX009 (ip), vehicle: saline with Tween-80
[10] = dose: 200.0 mg/kg/injection, schedule: Q01DX009 (ip), vehicle: saline with Tween-80

Measured: T/C

CCCc1nc2c(=O)[nH]cnc2o1
inactive: dose: 50.0 mg/kg/injection, schedule: Q01DX001 (ip), vehicle: saline with Tween-80 100 % of control | dose: 100.0 mg/kg/injection, schedule: Q01DX001 (ip), vehicle: saline with Tween-80 100 % of control | dose: 200.0 mg/kg/injection, schedule: Q01DX001 (ip), vehicle: saline with Tween-80 100 % of control

NNc1nnnn1-c1ccccc1
inactive: dose: 50.0 mg/kg/injection, schedule: Q01DX001 (ip), vehicle: Klucel (hydroxypropylcellulose) (HPC) 100 % of control | dose: 100.0 mg/kg/injection, schedule: Q01DX001 (ip), vehicle: Klucel (hydroxypropylcellulose) (HPC) 104 % of control | dose: 200.0 mg/kg/injection, schedule: Q01DX001 (ip), vehicle: Klucel (hydroxypropylcellulose) (HPC) 102 % of control

CC1=N/C(=C\c2ccccc2O)C(=O)O1
inactive: [1] 104 % of control | [2] 98 % of control | [3] 98 % of control

COC(=O)c1cc(=O)n2c(nc3ccccc32)s1
inactive: dose: 50.0 mg/kg/injection, schedule: Q01DX005 (ip), vehicle: acetone 108 % of control | dose: 100.0 mg/kg/injection, schedule: Q01DX005 (ip), vehicle: acetone 104 % of control | dose: 200.0 mg/kg/injection, schedule: Q01DX005 (ip), vehicle: acetone 101 % of control

CCCCCCCCCCCC(=O)NO
inactive: dose: 3.13 mg/kg/injection, schedule: Q01DX009 (ip), vehicle: saline with Tween-80 94 % of control | dose: 6.25 mg/kg/injection, schedule: Q01DX009 (ip), vehicle: saline with Tween-80 99 % of control | [4] 101 % of control | [5] 95 % of control

Oc1c(Br)cc(Br)cc1Oc1c(O)c(Br)c(Br)c(Br)c1Br
inactive: dose: 6.25 mg/kg/injection, schedule: Q01DX005 (ip), vehicle: Klucel (hydroxypropylcellulose) (HPC) 104 % of control | [6] 102 % of control | [7] 104 % of control | [1] 100 % of control and 101 % of control | [2] 100 % of control | [3] 99 % of control

CCOC(=O)COc1ccc2c(C)cc(=O)oc2c1[N+](=O)[O-]
inactive: dose: 60.0 mg/kg/injection, schedule: Q01DX005 (ip), vehicle: saline with Tween-80 102 % of control | dose: 120.0 mg/kg/injection, schedule: Q01DX005 (ip), vehicle: saline with Tween-80 99 % of control | dose: 240.0 mg/kg/injection, schedule: Q01DX005 (ip), vehicle: saline with Tween-80 98 % of control

CC(=O)OC1CC2C(C)(C)OC3CC(=O)OCC32C2CCC3(C)C(=CCC3c3ccoc3)C12C (stereo not drawn)
inactive: dose: 0.5 mg/kg/injection, schedule: Q01DX005 (ip), vehicle: saline + alcohol 108 % of control | dose: 1.0 mg/kg/injection, schedule: Q01DX005 (ip), vehicle: saline + alcohol 98 % of control | dose: 2.0 mg/kg/injection, schedule: Q01DX005 (ip), vehicle: saline + alcohol 106 % of control | dose: 4.0 mg/kg/injection, schedule: Q01DX005 (ip), vehicle: saline + alcohol 111 % of control | dose: 8.0 mg/kg/injection, schedule: Q01DX005 (ip), vehicle: saline + alcohol 108 % of control

CC12CCC3(CC(=O)C1CCC2O)OCCO3 (stereo not drawn)
inactive: [8] 107 % of control | dose: 100.0 mg/kg/injection, schedule: Q01DX009 (ip), vehicle: Klucel (hydroxypropylcellulose) (HPC) 103 % of control | dose: 200.0 mg/kg/injection, schedule: Q01DX009 (ip), vehicle: Klucel (hydroxypropylcellulose) (HPC) 116 % of control

C=C1N=NN(c2ccc([N+](=O)[O-])cc2)C1N1CCOCC1 (stereo not drawn)
inactive: dose: 60.0 mg/kg/injection, schedule: Q01DX005 (ip), vehicle: Klucel (hydroxypropylcellulose) (HPC) 100 % of control | dose: 120.0 mg/kg/injection, schedule: Q01DX005 (ip), vehicle: Klucel (hydroxypropylcellulose) (HPC) 101 % of control | dose: 240.0 mg/kg/injection, schedule: Q01DX005 (ip), vehicle: Klucel (hydroxypropylcellulose) (HPC) 105 % of control

[CH3][Sn]([CH3])([O]C(=O)c1ccc2c(c1)OCO2)[O]C(=O)c1ccc2c(c1)OCO2
inactive: [1] 112 % of control | [2] 112 % of control | [3] 109 % of control

Brc1ccccc1CN=Cc1ccc2c(c1)OCO2
inactive: [1] 101 % of control | [2] 105 % of control | [3] 103 % of control

CN(C)CCSc1c2ccccc2nc2ccccc12
inactive: [6] 110 % of control | [7] 110 % of control and 119 % of control | [1] 100 % of control (2×) and 101 % of control

COC(=O)C(NC(=O)c1ccccc1)C1CCC(Cl)CN1C(=O)OCc1ccccc1 (stereo not drawn)
inactive: dose: 8.75 mg/kg/injection, schedule: Q01DX009 (ip), vehicle: Klucel (hydroxypropylcellulose) (HPC) 100 % of control | dose: 17.5 mg/kg/injection, schedule: Q01DX009 (ip), vehicle: Klucel (hydroxypropylcellulose) (HPC) 100 % of control | dose: 35.0 mg/kg/injection, schedule: Q01DX009 (ip), vehicle: Klucel (hydroxypropylcellulose) (HPC) 100 % of control | dose: 70.0 mg/kg/injection, schedule: Q01DX009 (ip), vehicle: Klucel (hydroxypropylcellulose) (HPC) 92 % of control

O=C([O-])C(=O)[N-]CCC[N-]C(=O)C(=O)[N-]CCC[N-]C(=O)C(=O)[O-].[Cu+2].[Cu+2].[Na+]
inactive: dose: 3.75 mg/kg/injection, schedule: Q01DX005 (ip), vehicle: saline with Tween-80 103 % of control | dose: 7.5 mg/kg/injection, schedule: Q01DX005 (ip), vehicle: saline with Tween-80 104 % of control | dose: 15.0 mg/kg/injection, schedule: Q01DX005 (ip), vehicle: saline with Tween-80 101 % of control

COc1ccc(Br)c(C(=O)Sc2nnnn2-c2cccc(Cl)c2)c1
inactive: [9] 111 % of control | dose: 100.0 mg/kg/injection, schedule: Q01DX009 (ip), vehicle: saline with Tween-80 116 % of control | [10] 115 % of control

CC(=O)CSC1=CC(C)(C)CC1=O
inactive: [1] 96 % of control | [2] 99 % of control | [3] 99 % of control

COc1cc(-c2coc3c4c(ccc3c2=O)OC(C)(C)C=C4)c(OC)c2c1OCO2
inactive: dose: 10.0 mg/kg/injection, schedule: Q01DX009 (ip), vehicle: other 111 % of control | dose: 20.0 mg/kg/injection, schedule: Q01DX009 (ip), vehicle: other 102 % of control | dose: 40.0 mg/kg/injection, schedule: Q01DX009 (ip), vehicle: other 123 % of control

CCN1C(=O)N(CC)C2(CC(=O)c3ccccc3O2)C1=O (stereo not drawn)
inactive: dose: 60.0 mg/kg/injection, schedule: Q01DX005 (ip), vehicle: saline 111 % of control | dose: 120.0 mg/kg/injection, schedule: Q01DX005 (ip), vehicle: saline 108 % of control | dose: 240.0 mg/kg/injection, schedule: Q01DX005 (ip), vehicle: saline 110 % of control

CC1CC2OC2/C=C\C=C\C(=O)Cc2c(Cl)c(O)cc(O)c2C(=O)O1 (stereo not drawn)
inactive: dose: 6.25 mg/kg/injection, schedule: Q01DX009 (ip), vehicle: Klucel (hydroxypropylcellulose) (HPC) 107 % of control | dose: 12.5 mg/kg/injection, schedule: Q01DX009 (ip), vehicle: Klucel (hydroxypropylcellulose) (HPC) 108 % of control | dose: 25.0 mg/kg/injection, schedule: Q01DX009 (ip), vehicle: Klucel (hydroxypropylcellulose) (HPC) 110 % of control | [8] 109 % of control

COc1ccc(C2=NC(c3ccccc3)N3C(c4ccccc4)NC(c4ccccc4)C2C3c2ccccc2)cc1 (stereo not drawn)
inactive: [4] 100 % of control | [5] 90 % of control | [9] 90 % of control and 93 % of control | [10] 91 % of control

COC1=CC(=O)c2nc(Cl)ccc2C1=O
inactive: dose: 6.25 mg/kg/injection, schedule: Q01DX005 (ip), vehicle: saline with Tween-80 100 % of control | dose: 12.5 mg/kg/injection, schedule: Q01DX005 (ip), vehicle: saline with Tween-80 100 % of control | dose: 25.0 mg/kg/injection, schedule: Q01DX005 (ip), vehicle: saline with Tween-80 108 % of control and 92 % of control | dose: 50.0 mg/kg/injection, schedule: Q01DX005 (ip), vehicle: saline with Tween-80 100 % of control

CC1OP(=S)(S)OC1C (stereo not drawn)
inactive: dose: 50.0 mg/kg/injection, schedule: Q01DX005 (ip), vehicle: saline 95 % of control | dose: 100.0 mg/kg/injection, schedule: Q01DX005 (ip), vehicle: saline 100 % of control
